Test [1] deals with MLKL phosphorylation in HT29-L23 human colorectal adenocarcinoma cells. The experiment in a line: MLKL Phosphorylation High-Content Assay. The class given is cell-based. To be noted: necroptosis induced with TNFα, SMAC mimetic and Z-VAD, 6 h, read-out: pMLKL (IC50). The procedure, abridged:
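HT29-L23 cells were induced to necroptosis with TNFα (35 ng/mL), SMAC mimetic (700 nM) and Z-VAD (140 nM) for 6 h at 37 °C. Phospho-MLKL (S358) immunofluorescence was imaged and quantified per cell; maximal inhibition set by Nec-1s (6.25 μM), and IC50/Ymax from 4-parameter logistic fit.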

Test [2] has as its target His-GST-TVMV-hRIPK1 (1-324) (Homo sapiens (Human), UniProt Q13546). In words: biochemical.
Procedure: A solution was prepared containing 0.2 nM Anti GST-Tb (Cisbio, 61GSTTLB), 90.6 nM probe and 1 nM His-GST-TVMV-hRIPK1 (1-324) in FRET Buffer (20 mM HEPES, 10 mM MgCl2, 0.015% Brij-35, 4 mM DTT, 0.05 mg/mL BSA). Using Formulatrix Tempest, the detection antibody/enzyme/probe solution (2 mL) was dispensed into wells of a 1536 plate (Black Low Binding Polystyrene 1536 Plate (Corning, 3724)) containing 10 nL of compounds of interest at appropriate concentration in DMSO. The plate was incubated at rt for 1 h. FRET was measured using the EnVision plate reader (Excitation: 340 nm, Emission: 520 nm/495 nM). Total signal (0% inhibition) was calculated from wells containing 10 nL DMSO only.

Each structure is given as a SMILES string. Where two headings read alike, the source gives them in different places.

His-GST-TVMV-hRIPK1 (1-324), sequence (Q13546 1-324): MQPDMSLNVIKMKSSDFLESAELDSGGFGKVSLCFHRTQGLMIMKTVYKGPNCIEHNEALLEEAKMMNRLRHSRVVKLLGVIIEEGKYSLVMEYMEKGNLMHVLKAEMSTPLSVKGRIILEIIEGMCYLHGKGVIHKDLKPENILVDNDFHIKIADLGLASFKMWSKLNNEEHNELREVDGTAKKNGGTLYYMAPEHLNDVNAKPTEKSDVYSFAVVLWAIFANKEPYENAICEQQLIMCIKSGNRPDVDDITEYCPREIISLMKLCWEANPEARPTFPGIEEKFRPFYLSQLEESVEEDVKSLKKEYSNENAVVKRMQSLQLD

Broadly, the IC50 is the concentration that gives 50% inhibition. In the case of `CCC(c1ccccc1)n1nnc(-c2cc(-c3ccc4c(C(=O)NC)n[nH]c4c3)cnc2OC)n1` (single isomer, unassigned) [Example 18-1, 6-(6-methoxy-5-(2-(l-phenylpropyl)-2H-tetrazol-5-yl)pyridin-3-yl)-N-methyl-1H-indazole-3-carboxamide], the 50% inhibitory concentration (IC50) in test [1] stood at 7.3 nM; in test [2], 5.5 nM.

Consider `CCC(c1ccccc1)n1nnc(-c2cc(-c3ccc4c(C(=O)NC)n[nH]c4c3)cnc2OC)n1` (single isomer, unassigned) [Example 18-2, 6-(6-methoxy-5-(2-(l-phenylpropyl)-2H-tetrazol-5-yl)pyridin-3-yl)-N-methyl-1H-indazole-3-carboxamide], for which the figures for the 50% inhibitory concentration (IC50) in test [1] and in test [2] were 310 nM and 100 nM, respectively.

With `[2H]C([2H])([2H])NC(=O)c1n[nH]c2cc(-c3cnc(OC)c(-c4nnn(C(C)c5ccc(F)cc5)n4)c3)ccc12` (single isomer, unassigned) [Example 19-1, 6-(5-(2-(1-(4-fluorophenyl)ethyl)-2H-tetrazol-5-yl)-6-methoxypyridin-3-yl)-N-(methyl-d3)-1H-indazole-3-carboxamide], the IC50 stood at 14 nM in test [1] and 42 nM in test [2].

With `[2H]C([2H])([2H])NC(=O)c1n[nH]c2cc(-c3cnc(OC)c(-c4nnn(C(C)c5ccc(F)cc5)n4)c3)ccc12` (single isomer, unassigned) [Example 19-2, 6-(5-(2-(1-(4-fluorophenyl)ethyl)-2H-tetrazol-5-yl)-6-methoxypyridin-3-yl)-N-(methyl-d3)-1H-indazole-3-carboxamide], the half-inhibitory concentration (IC50) in test [1] stood at 64 nM; in test [2], 100 nM.

As to `CNC(=O)c1n[nH]c2cc(-c3cnc(OC)c(C(=O)NC4CCCC(c5ccccc5)C4)c3)ccc12` (single isomer, unassigned) [Example 21-1, 6-{6-methoxy-5-[(3-phenylcyclohexyl)carbamoyl]pyridin-3-yl}-N-methyl-1H-indazole-3-carboxamide], the IC50 in test [1] is 8.3 nM; in test [2], 3.5 nM.

Consider `CNC(=O)c1n[nH]c2cc(-c3cnc(OC)c(C(=O)NC4CCCC(c5ccccc5)C4)c3)ccc12` (single isomer, unassigned) [Example 21-2, 6-{6-methoxy-5-[(3-phenylcyclohexyl)carbamoyl]pyridin-3-yl}-N-methyl-1H-indazole-3-carboxamide], for which the half-maximal inhibitory concentration (IC50) worked out at 13 nM in test [1] and 5.9 nM in test [2].

With `CNC(=O)c1n[nH]c2cc(-c3cnc(OC)c(C(=O)NC4CCCC(c5ccccc5)C4)c3)ccc12` (single isomer, unassigned) [Example 21-3, 6-{6-methoxy-5-[(3-phenylcyclohexyl)carbamoyl]pyridin-3-yl}-N-methyl-1H-indazole-3-carboxamide], the IC50 was 8.1 nM in test [1] and 22 nM in test [2].

As for `CNC(=O)c1n[nH]c2cc(-c3cnc(OC)c(C(=O)NC4CCCC(c5ccccc5)C4)c3)ccc12` (single isomer, unassigned) [Example 21-4, 6-{6-methoxy-5-[(3-phenylcyclohexyl)carbamoyl]pyridin-3-yl}-N-methyl-1H-indazole-3-carboxamide], the half-maximal inhibitory concentration (IC50) in test [1] and in test [2] was 2 nM each time.

`[2H]C([2H])([2H])N(C1CCC(NC(=O)c2n[nH]c3cc(-c4cnc(OC)c(C(=O)NCc5ccccc5OC(F)(F)F)c4)ccc23)CC1)C([2H])([2H])[2H]` (stereo not drawn) [Example 188, N-{4-[di(deutero)methylamino]-cyclohexyl}-6-[6-methoxy-5-({[2-(trifluoromethoxy)phenyl]-methyl}carbamoyl)pyridin-3-yl]-1H-indazole-3-carboxamide]: the 50% inhibitory concentration (IC50) in test [1] (Homo sapiens) was found to be 130 nM; in test [2], 23 nM.

For the molecule `[2H]C([2H])([2H])Oc1ncc(-c2ccc3c(C(=O)NC([2H])([2H])C([2H])([2H])[2H])n[nH]c3c2)cc1C(=O)N[C@@H]1CN(C(=O)C2CC(F)(F)C2)C[C@@H]1F` [Example 192, 6-(5-{[(3R,4S)-1-(3,3-difluorocyclo-butanecarbonyl)-4-fluoropyrrolidin-3-yl]carbamoyl}-6-(deutero)methoxy-pyridin-3-yl)-N-[(1,1,2,2,2-deutero)-ethyl]-1H-indazole-3-carboxamide], the values for the IC50 in test [1] (Homo sapiens) and in test [2] were 430 nM and 110 nM, respectively.

Turning to `[2H]C([2H])([2H])Oc1ncc(-c2ccc3c(C(=O)NC4CC4)n[nH]c3c2)cc1C(=O)N[C@@H](C)CC(=O)OC(C)(C)C` [Example 195, tert-butyl (3S)-3-({5-[3-(cyclo-propylcarbamoyl)-1H-indazol-6-yl]-2-(deutero)methoxypyridin-3-yl}formamido)butanoate], the IC50 in test [1] was found to be 39 nM; in test [2], 36 nM.

As to `[2H]C([2H])([2H])Oc1ncc(-c2ccc3c(C(=O)NC4CC4)n[nH]c3c2)cc1C(=O)N[C@H](C)CC(=O)OC(C)(C)C` [Example 196, tert-butyl (3R)-3-({5-[3-(cyclo-propylcarbamoyl)-1H-indazol-6-yl]-2-(deutero)methoxypyridin-3-yl}formamido)butanoate], the results for the IC50 in test [1] and in test [2] were 19 nM and 84 nM, respectively.

For `[2H]C([2H])([2H])Oc1ncc(-c2ccc3c(C(=O)NC4CC4)n[nH]c3c2)cc1C(=O)N[C@H](C)c1ccccc1C(F)(F)F` [Example 209, N-cyclopropyl-6-[6-(deutero)-methoxy-5-{[(1R)-1-[2-(trifluoro-methyl)phenyl]ethyl]carbamoyl}-pyridin-3-yl]-1H-indazole-3-carboxamide], the concentration for half-maximal inhibition (IC50) worked out at 74 nM in test [1] (Homo sapiens) and 33 nM in test [2].

For `[2H]C([2H])([2H])Oc1ncc(-c2ccc3c(C(=O)NC([2H])([2H])C([2H])([2H])[2H])n[nH]c3c2)cc1C(=O)N[C@@H](C)c1cc(OC(F)(F)F)ccc1F` [Example 224, N-[(1,1,2,2,2-deutero)ethyl]-6-(5-{[(1S)-1-[2-fluoro-5-(trifluorometh-oxy)phenyl]ethyl]carbamoyl}-6-(deutero)methoxypyridin-3-yl)-1H-indazole-3-carboxamide], the IC50 turned out to be 12 nM in test [1] (Homo sapiens) and 17 nM in test [2].

With `[2H]C([2H])([2H])Oc1ncc(-c2ccc3c(C(=O)NC([2H])([2H])C([2H])([2H])[2H])n[nH]c3c2)cc1C(=O)N[C@@H](C)c1cc(C(F)(F)F)ccc1F` [Example 226, N-[(1,1,2,2,2-deutero)ethyl]-6-(5-{[(1S)-1-[2-fluoro-5-(trifluoro-methyl)phenyl]ethyl]carbamoyl}-6-(deutero)methoxypyridin-3-yl)1H-indazole-3-carboxamide], the figures for the half-inhibitory concentration (IC50) in test [1] (Homo sapiens) and in test [2] were 41 nM and 57 nM, respectively.

As for `[2H]C([2H])([2H])Oc1ncc(-c2ccc3c(C(=O)NC([2H])([2H])C([2H])([2H])[2H])n[nH]c3c2)cc1C(=O)N[C@H](C)c1cccc(C(F)(F)F)c1` [Example 229, N-[(1,1,2,2,2-deutero)ethyl]-6-[6-(deutero)methoxy-5-{[(1R)-1-[3-(trifluoromethyl)phenyl]ethyl]car-bamoyl}pyridin-3-yl]-1H-indazole-3-carboxamide], the IC50 was 82 nM in test [1] (Homo sapiens) and 210 nM in test [2].

`[2H]C([2H])([2H])Oc1ncc(-c2ccc3c(C(=O)NC([2H])([2H])C([2H])([2H])[2H])n[nH]c3c2)cc1C(=O)N[C@@H](C)c1cccc(C(F)(F)F)c1` [Example 230, N-[(1,1,2,2,2-deutero)ethyl]-6-[6-(deutero)methoxy-5-{[(1S)-1-[3-(trifluoromethyl)phenyl]ethyl]car-bamoyl}pyridin-3-yl]-1H-indazole-3-carboxamide]: the concentration for half-maximal inhibition (IC50) in test [1] (Homo sapiens) stood at 55 nM; in test [2] it was 11 nM.

For the molecule `[2H]C([2H])([2H])Oc1ncc(-c2ccc3c(C(=O)NC([2H])([2H])C([2H])([2H])[2H])n[nH]c3c2)cc1C(=O)N[C@H](C)c1cccc(OC(F)(F)F)c1` [Example 231, N-[(1,1,2,2,2-deutero)ethyl]-6-[6-(deutero)methoxy-5-{[(1R)-1-[3-(trifluoromethoxy)phenyl]ethyl]-carbamoyl}pyridin-3-yl]-1H-indazole-3-carboxamide], the IC50 is 10 nM in test [1] (Homo sapiens) and 48 nM in test [2].

For the molecule `[2H]C([2H])([2H])Oc1ncc(-c2ccc3c(C(=O)NC([2H])([2H])C([2H])([2H])[2H])n[nH]c3c2)cc1C(=O)N[C@H](C)c1ccccc1C(F)(F)F` [Example 235, N-[(1,1,2,2,2-deutero)ethyl]-6-[6-(deutero)methoxy-5-{[(1R)-1-[2-(trifluoromethyl)phenyl]ethyl]car-bamoyl}pyridin-3-yl]-1H-indazole-3-carboxamide], the IC50 in test [1] (Homo sapiens) turned out to be 48 nM; in test [2], 34 nM.

Regarding `[2H]C([2H])([2H])Oc1ncc(-c2ccc3c(C(=O)NC([2H])([2H])C([2H])([2H])[2H])n[nH]c3c2)cc1C(=O)NCC[C@@H](O)c1ccc(Cl)cc1` [Example 237, 6-(5-{[(3R)-3-(4-chlorophenyl)-3-hydroxypropyl]carbamoyl}-6-(deutero)methoxypyridin-3-yl)-N-[(1,1,2,2,2-deutero)ethyl]-1H-indazole-3-carboxamide], the concentration for half-maximal inhibition (IC50) in test [1] (Homo sapiens) turned out to be 14 nM; in test [2], 6.3 nM.

With `[2H]C([2H])([2H])Oc1ncc(-c2ccc3c(C(=O)NC([2H])([2H])C([2H])([2H])[2H])n[nH]c3c2)cc1C(=O)N[C@@H](C)CC(=O)OC(C)(C)C` [Example 238, tert-butyl (3S)-3-{[5-(3-{[(1,1,2,2,2-deutero)ethyl]carbamoyl}-1H-indazol-6-yl)-2-(deutero)methoxy-pyridin-3-yl]formamido}butanoate], the concentration for half-maximal inhibition (IC50) in test [1] (Homo sapiens) was 41 nM; in test [2] it was 47 nM.
